Data taken from PubChem BioAssay AID248 (DTP/NCI, 2004).
Where “and” joins values, the source holds several entries; their conditions need not be identical. Equal values may be shown once. Toxic doses and inconclusive results are not listed. Cut-off read from the data, not from the text of the source: active = T/C of 150% or more; inactive = T/C below 125%.

Tested on: L1210 leukemia ip in BDF1 mice, survival T/C
Test: NCI In Vivo Anticancer Drug Screen. Data for tumor model L1210 Leukemia (intraperitoneal) in B6D2F1 (BDF1) mice
Details: endpoint: mean survival time, higher = longer survival
How it was run: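 Antitumor effect is assessed in tumor-bearing animals. Survival in the compound arm is compared with a vehicle-dosed control arm and expressed as their quotient.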

[1] = dose: 10.0 mg/kg/injection, schedule: Q04DX003 (ip), vehicle: Klucel (hydroxypropylcellulose) (HPC)
[2] = dose: 20.0 mg/kg/injection, schedule: Q04DX003 (ip), vehicle: Klucel (hydroxypropylcellulose) (HPC)
[3] = dose: 40.0 mg/kg/injection, schedule: Q04DX003 (ip), vehicle: Klucel (hydroxypropylcellulose) (HPC)
[4] = dose: 200.0 mg/kg/injection, schedule: Q01DX009 (ip), vehicle: saline
[5] = dose: 200.0 mg/kg/injection, schedule: Q04DX003 (ip), vehicle: Klucel (hydroxypropylcellulose) (HPC)
[6] = dose: 400.0 mg/kg/injection, schedule: Q04DX003 (ip), vehicle: Klucel (hydroxypropylcellulose) (HPC)
[7] = dose: 100.0 mg/kg/injection, schedule: Q04DX003 (ip), vehicle: saline with Tween-80
[8] = dose: 200.0 mg/kg/injection, schedule: Q04DX003 (ip), vehicle: saline with Tween-80
[9] = dose: 400.0 mg/kg/injection, schedule: Q04DX003 (ip), vehicle: saline with Tween-80
[10] = dose: 100.0 mg/kg/injection, schedule: Q01DX001 (ip), vehicle: carboxymethylcellulose (CMC)
[11] = dose: 200.0 mg/kg/injection, schedule: Q01DX001 (ip), vehicle: carboxymethylcellulose (CMC)
[12] = dose: 400.0 mg/kg/injection, schedule: Q01DX001 (ip), vehicle: carboxymethylcellulose (CMC)
[13] = dose: 100.0 mg/kg/injection, schedule: Q01DX009 (ip), vehicle: saline with Tween-80
[14] = dose: 200.0 mg/kg/injection, schedule: Q01DX009 (ip), vehicle: saline with Tween-80
[15] = dose: 400.0 mg/kg/injection, schedule: Q01DX009 (ip), vehicle: saline with Tween-80
[16] = dose: 100.0 mg/kg/injection, schedule: Q04DX002 (ip), vehicle: Klucel (hydroxypropylcellulose) (HPC)
[17] = dose: 200.0 mg/kg/injection, schedule: Q04DX002 (ip), vehicle: Klucel (hydroxypropylcellulose) (HPC)
[18] = dose: 400.0 mg/kg/injection, schedule: Q04DX002 (ip), vehicle: Klucel (hydroxypropylcellulose) (HPC)
[19] = dose: 100.0 mg/kg/injection, schedule: Q01DX001 (ip), vehicle: saline
[20] = dose: 200.0 mg/kg/injection, schedule: Q01DX001 (ip), vehicle: saline

Measured: T/C

COc1ccc2nc3cc(Cl)ccc3c(NCCCNCCCl)c2c1
inactive: [1] 115 % of control | [2] 103 % of control | [3] 105 % of control

O=S(=O)(C(Cl)Cl)C(Cl)(Cl)S(=O)(=O)C(Cl)Cl
inactive: dose: 25.0 mg/kg/injection, schedule: Q01DX009 (ip), vehicle: Klucel (hydroxypropylcellulose) (HPC) 96 % of control | dose: 50.0 mg/kg/injection, schedule: Q01DX009 (ip), vehicle: Klucel (hydroxypropylcellulose) (HPC) 102 % of control | dose: 100.0 mg/kg/injection, schedule: Q01DX009 (ip), vehicle: Klucel (hydroxypropylcellulose) (HPC) 94 % of control and 90 % of control

O=C(O)c1nc[nH]c1C(=O)O
inactive: dose: 100.0 mg/kg/injection, schedule: Q01DX009 (ip), vehicle: saline 102 % of control | dose: 100.0 mg/kg/injection, schedule: Q04DX003 (ip), vehicle: Klucel (hydroxypropylcellulose) (HPC) 93 % of control | [4] 104 % of control | [5] 96 % of control | dose: 400.0 mg/kg/injection, schedule: Q01DX009 (ip), vehicle: saline 94 % of control | [6] 88 % of control

N\C([S-])=N/N=C\C(=N/N=C(\N)[S-])C(O)C(O)C(O)CO.[Pt+2] (stereo not drawn)
inactive: dose: 50.0 mg/kg/injection, schedule: Q01DX009 (ip), vehicle: saline 91 % of control | [7] 92 % of control | [4] 100 % of control | [8] 89 % of control | [9] 96 % of control

CCCCNc1nc(N)nc(N)c1N=Nc1ccc(Cl)cc1
inactive: [10] 101 % of control | [11] 96 % of control | [12] 98 % of control

S=c1nc2ccccn2c(=S)n1-c1ccccn1
inactive: dose: 100.0 mg/kg/injection, schedule: Q01DX001 (ip), vehicle: saline with Tween-80 106 % of control | dose: 200.0 mg/kg/injection, schedule: Q01DX001 (ip), vehicle: saline with Tween-80 100 % of control

C#C/C=C/CC1OC(C(Br)CC)CC(Br)C2CC1O2 (stereo not drawn)
inactive: dose: 75.0 mg/kg/injection, schedule: Q01DX001 (ip), vehicle: carboxymethylcellulose (CMC) 92 % of control | dose: 150.0 mg/kg/injection, schedule: Q01DX001 (ip), vehicle: carboxymethylcellulose (CMC) 96 % of control | dose: 300.0 mg/kg/injection, schedule: Q01DX001 (ip), vehicle: carboxymethylcellulose (CMC) 96 % of control

COC(=O)C1C2CCC(C2)C1C (stereo not drawn)
inactive: dose: 25.0 mg/kg/injection, schedule: Q04DX003 (ip), vehicle: saline with Tween-80 101 % of control | dose: 50.0 mg/kg/injection, schedule: Q04DX003 (ip), vehicle: saline with Tween-80 97 % of control | [7] 94 % of control

CCCCCCC(O)CCCCCCCCCCC(=O)OC (stereo not drawn)
inactive: [13] 98 % of control | [14] 88 % of control | [15] 92 % of control

O=C(O)c1cccc(C(=O)Oc2ccccc2-c2ccccc2)c1
inactive: dose: 50.0 mg/kg/injection, schedule: Q01DX009 (ip), vehicle: saline with Tween-80 94 % of control | [13] 87 % of control | [14] 94 % of control

COc1ccc(NC(=O)NCc2cccc(Cl)c2)cc1
inactive: dose: 50.0 mg/kg/injection, schedule: Q04DX002 (ip), vehicle: Klucel (hydroxypropylcellulose) (HPC) 100 % of control | [16] 103 % of control and 107 % of control | [17] 98 % of control | [18] 110 % of control and 92 % of control

O=C(NC(C(=O)O)c1ccccc1)OCc1ccccc1 (stereo not drawn)
inactive: [13] 111 % of control and 97 % of control | [14] 91 % of control and 92 % of control | [15] 89 % of control and 93 % of control

CCCN(CCC)c1ccc(SC#N)cc1
inactive: [19] 98 % of control | [20] 95 % of control

CC(=O)Nc1ccc(S(C)(=O)=O)cc1I
inactive: [10] 93 % of control | [11] 96 % of control | [12] 91 % of control

O=C(O)CSc1ccc2ccccc2c1
inactive: [16] 89 % of control | [17] 111 % of control | [18] 108 % of control

Cc1ccc(NS(=O)(=O)c2ccc([N+](=O)[O-])cc2)c(C)c1
inactive: [13] 98 % of control | [7] 88 % of control | [14] 101 % of control | [8] 89 % of control | [15] 98 % of control | [9] 86 % of control

CC(C)(C)C1=CC(=O)C=C(C(C)(C)C)C1=O
inactive: dose: 100.0 mg/kg/injection, schedule: Q01DX001 (ip), vehicle: Klucel (hydroxypropylcellulose) (HPC) 89 % of control | dose: 200.0 mg/kg/injection, schedule: Q01DX001 (ip), vehicle: Klucel (hydroxypropylcellulose) (HPC) 92 % of control | [5] 87 % of control | dose: 400.0 mg/kg/injection, schedule: Q01DX001 (ip), vehicle: Klucel (hydroxypropylcellulose) (HPC) 100 % of control | [6] 89 % of control

COC(=O)C1C2CC3c4[nH]c5ccc(OC)cc5c4CCN3CC2CC(OC(=O)c2cc(OC)c(OC)c(OC)c2)C1OC (stereo not drawn)
inactive: [1] 102 % of control | [2] 98 % of control | dose: 22.81 mg/kg/injection, schedule: Q01DX009 (ip), vehicle: Klucel (hydroxypropylcellulose) (HPC) 111 % of control | [3] 114 % of control | dose: 45.62 mg/kg/injection, schedule: Q01DX009 (ip), vehicle: Klucel (hydroxypropylcellulose) (HPC) 91 % of control | dose: 80.0 mg/kg/injection, schedule: Q04DX003 (ip), vehicle: Klucel (hydroxypropylcellulose) (HPC) 96 % of control | dose: 91.25 mg/kg/injection, schedule: Q01DX009 (ip), vehicle: Klucel (hydroxypropylcellulose) (HPC) 94 % of control | dose: 160.0 mg/kg/injection, schedule: Q04DX003 (ip), vehicle: Klucel (hydroxypropylcellulose) (HPC) 93 % of control | dose: 240.0 mg/kg/injection, schedule: Q04DX003 (ip), vehicle: Klucel (hydroxypropylcellulose) (HPC) 107 % of control | dose: 365.0 mg/kg/injection, schedule: Q04DX003 (ip), vehicle: Klucel (hydroxypropylcellulose) (HPC) 102 % of control

CCCC(CCC)NCC(C)O (stereo not drawn)
inactive: dose: 75.0 mg/kg/injection, schedule: Q01DX001 (ip), vehicle: acid diluted with saline 104 % of control

COCCO
inactive: [19] 105 % of control | [20] 103 % of control | dose: 400.0 mg/kg/injection, schedule: Q01DX001 (ip), vehicle: saline 105 % of control

CC(=O)OC1CCC2(C)C3CCC4(C)C(CC5OC54C(C)=O)C3CC3OC32C1 (stereo not drawn)
inactive: dose: 50.0 mg/kg/injection, schedule: Q01DX001 (sc), vehicle: steriod suspending solution 97 % of control | dose: 100.0 mg/kg/injection, schedule: Q01DX001 (sc), vehicle: steriod suspending solution 101 % of control | dose: 200.0 mg/kg/injection, schedule: Q01DX001 (sc), vehicle: steriod suspending solution 106 % of control | dose: 400.0 mg/kg/injection, schedule: Q01DX001 (sc), vehicle: steriod suspending solution 113 % of control

CCCCCCC(=O)/C=C/c1ccc(Cl)cc1Cl
inactive: dose: 100.0 mg/kg/injection, schedule: Q01DX009 (ip), vehicle: acetone 95 % of control | dose: 100.0 mg/kg/injection, schedule: Q04DX003 (ip), vehicle: acetone 86 % of control | dose: 200.0 mg/kg/injection, schedule: Q01DX009 (ip), vehicle: acetone 90 % of control | dose: 200.0 mg/kg/injection, schedule: Q04DX003 (ip), vehicle: acetone 91 % of control | dose: 400.0 mg/kg/injection, schedule: Q01DX009 (ip), vehicle: acetone 95 % of control | dose: 400.0 mg/kg/injection, schedule: Q04DX003 (ip), vehicle: acetone 93 % of control

C[C@]12C=CC(=O)C=C1CC[C@@H]1[C@@H]2[C@@H](O)C[C@@]2(C)[C@H]1CC[C@]2(O)C(=O)COC(=O)CCC(=O)O
inactive: dose: 63.0 mg/kg/injection, schedule: Q01DX015 (sc), vehicle: steriod suspending solution 106 % of control | dose: 125.0 mg/kg/injection, schedule: Q01DX015 (sc), vehicle: steriod suspending solution 106 % of control | dose: 250.0 mg/kg/injection, schedule: Q01DX015 (sc), vehicle: steriod suspending solution 96 % of control | dose: 500.0 mg/kg/injection, schedule: Q01DX015 (sc), vehicle: steriod suspending solution 108 % of control and 116 % of control
